Data reported in patent publication US20150124259A1, “Method For Biodynamic Spectroscope Imaging” (Purdue Research Foundation, priority 2013, published 2015).

What was measured:
Type in all cases: cell-based
tumor spheroids (UMR106) = assay: Biodynamic spectroscopic imaging (BSI) of mitosis events in tumor spheroids, single-band thresholding (Taxol treatment)
Description: The mitosis phase has its own fingerprint because mitosis is one of the most dramatic events in a cell's life. However compared to the dynamic speckle from an entire tumor spheroid, the signal of the mitosis of a single cell is very weak. The statistical TDS technique is not able to show the mitosis events of single cells. On the other hand, BSI may be applied to generate a voxel based microspectrograms. In the current TDS system, the transverse and longitudinal resolution are 9 μm and 18 μm, and the typical size of UMR106 cell in tumor spheroid is about 10 um. Therefore, on the reconstructed image, each pixel contains about 4 cells. However the spectrum of a single pixel is too noisy to perform analysis, so 2×2 pixels can be preferably used as the balance point to calculate the spectra of the voxels. Thus, according to one aspect of the BSI method disclosed herein, the 3D image is reconstructed as voxels, rather than pixels, in which a voxel includes 2×2 pixels. The microspectrograms are then generated for each voxel, rather than pixel, which substantially eliminates the effect of noise in the image.
Therefore, for a single voxel, the normalized spectra from five datasets (20 mins) can be averaged together, with no risk of “missing” a biological event of the cell. By combining these normalized spectra together, the micro (voxel) spectrograms are generated. The baseline is the averaged spectrum over the entire tissue when it is only surrounded by growth medium. During the entire experimental period, each voxel corresponds to one spectrogram. A frequency vs. time fluctuation spectral response image of the tumor spheroid is constructed.
The frequency range is picked at a mid-high frequency band (0.52 Hz to 1 Hz, marked as a box in FIG. 7) and enhancement is picked as the finger print of the mitosis. The enhancement in this frequency range indicates both cell membrane undulation and cell organelle motion during mitosis. […] The prior approach discussed above referred to single-band thresholding that used the third case baseline described above as essentially a pixel-based TDS. This pixel-based TDS approach fails to isolate mitosis from other biological processes and to isolate mitosis from noise. Therefore, single-band thresholding only correctly acquires mitosis information when using the first or second case baselines described above.
Paclitaxel is a mitotic inhibitor used as an anti-cancer drug. It can stabilize microtubules so that cell division during mitosis can be interrupted. Experiments were performed using 2 concentrations of Paclitaxel: 1 μg/ml and 10 μg/ml. The tumor spheroids in these experiments were 430 μm diameter (1 μg/ml) and 410 μm diameter (10 μg/ml). The baselines were taken as described above. After 40 minutes, the original growth medium was replaced by medium with Paclitaxel. The data was collected for six hours, and the resulting macrospectrograms of the experiments are shown in FIG. 9b for 1 μg/ml and FIG. 9c for 10 μg/ml.
The thresholding used in this example is based on the single-band method using the first case baseline described above that averages the baseline over all pixels for all times. […] Each light speckle in each image represents a mitosis event. […] The mitosis events depicted in the BSI images of FIG. 10 are quantified in the graph of FIG. 11. The y-axis of the graph is the density of the voxels which are in the mitosis phase expressed as a fraction of the mitotic voxels to the total number of voxels for the underlying image. […]

DLD-1 tumor spheroid = assay: BSI imaging of tumor heterogeneity of drug response in DLD-1 tumor spheroid
Description: In a previous co-pending application Ser. No. 13/760,827, entitled “System and Method for Determining Modified States of Health of Living Tissue”, filed on Feb. 6, 2013, and published as Pub. No. 2013/0144151 (the '151 application), the entire disclosure of which is incorporated herein by reference, a method is described that uses time-frequency masks to extract feature vectors. Multiple masks are used to create feature vectors that are then used to classify a drug response. In accordance with the present disclosure, the BSI techniques described herein can use the same or similar time-frequency masks to capture different mechanisms related to the drug action, and then perform the analysis on a per-pixel basis to generate “hyperspectral” maps of the tumor response to drugs. Because the signal-to-noise of single-pixel power spectra for biodynamic spectroscopic imaging (BSI) is not as large as for tissue dynamics spectroscopy (TDS) that averages over many pixels, it is necessary to modify the time-frequency mask from that described in the '151 application. The time-frequency spectral power density is given by S(ω,T). This power spectrum typically has a power-law decay at higher frequencies, with several orders of magnitude in vertical dynamic range. […]

[1] = tested on: ex vivo biopsy sample of canine multicentric B-cell lymphoma; assay: BSI of drug response of ex vivo biopsy sample; details: two-color pixel map
Description: An additional example of BSI is shown in FIG. 18 for an ex vivo biopsy sample of canine multicentric B-cell lymphoma. […] This signature is coded in green in the BSI image. The other spectral signature had low-frequency enhancement and high-frequency suppression, which is coded as red in the BSI image. […] This ex vivo biopsy is responding to the anticancer drug doxorubicin.

In the case of `CC(=O)O[C@H]1C(=O)[C@@]2(C)[C@H]([C@H](OC(=O)c3ccccc3)[C@]3(O)C[C@H](OC(=O)[C@H](O)[C@@H](NC(=O)c4ccccc4)c4ccccc4)C(C)=C1C3(C)C)[C@]1(OC(C)=O)CO[C@@H]1C[C@@H]2O` [Paclitaxel], the “mitotic events, fraction of mitotic voxels to total voxels over time (FIG. 11)” value (tumor spheroids (UMR106); 1 μg/ml, 430 μm diameter spheroid, compared with negative controls) is reported as “fewer mitotic events and decayed faster”, the “mitosis remaining after drug application (FIG. 11)” value (tumor spheroids (UMR106); 1 μg/ml, six hours after applying) is reported as “still slight mitosis” and the “mitotic events, fraction of mitotic voxels to total voxels over time (FIG. 11)” value (tumor spheroids (UMR106); 410 μm diameter spheroid) is reported as “decayed the fastest”. For the same compound, the “mitosis activity inside the tumor spheroids (BSI images, FIG. 10)” value (tumor spheroids (UMR106); Taxol treated vs untreated, single-band threshold 0.52-1.0 Hz, nearly six hours) was “significantly reduced” and the “mitosis remaining after drug application (FIG. 11)” value (tumor spheroids (UMR106); two hours after applying the drug) was “almost no mitosis at all”.

`CNC(=O)c1cc(Oc2ccc(NC(=O)Nc3ccc(Cl)c(C(F)(F)F)c3)cc2)ccn1` [Sorafenib] was tested, and the “homogeneity of the response across the specimen (FIGS. 16c, 17)” value (DLD-1 tumor spheroid; BSI image and classification map) was “majority of the specimen is unaffected or only slightly affected” and the “BSI spectral response to drug, spatial distribution (FIG. 16c)” value (DLD-1 tumor spheroid; spheroid approximately 600 microns in diameter, periphery vs interior) was “highest magnitude in the proliferating shell, with low (dark) response internal to the tumor”.

For `COc1cccc2c1C(=O)c1c(O)c3c(c(O)c1C2=O)C[C@@](O)(C(=O)CO)C[C@@H]3O[C@H]1C[C@H](N)[C@H](O)[C@H](C)O1` [doxorubicin], the “BSI spectral responses of tissue to drug (FIG. 18)” value [1] was “two very different spectral responses”.
